The text below walks through data of ChEMBL document CHEMBL6134822, “Discovery of a potent and in vivo anti-inflammatory Efficacious, P2Y14R antagonist with a novel benzisoxazoles scaffold by DNA-encoded chemical library technology” (Eur J Med Chem, 2025).

Activity calls are given as the source filed them. No cut-off for these calls is given here.

For data set [1], the system named is Mus musculus. Description: Anti-inflammatory activity in C57BL/6 mouse model of LPS-induced ALI assessed as reduction in IL-6 level in BALF at 2 to 6 mg/kg qd treated for 7 days by ELISA. The class given is functional, organism-based. The conditions noted are these: dose 2-6 mg/kg, time 7.0 day.
The nature of data set [2]: Stability in simulated intestinal fluid assessed as half life. The class given is physicochemical.
In data set [3] the test system is Mus musculus. The data set can be described thus: Anti-inflammatory activity in C57BL/6 mouse model of LPS-induced ALI assessed as reduction in TNF-alpha level in BALF at 2 to 6 mg/kg qd treated for 7 days by ELISA. The class given is functional, organism-based. The conditions noted are these: dose 2-6 mg/kg, time 7.0 day.
Data set [4] addresses T1, P2Y purinoceptor 14 (Homo sapiens, UniProt Q15391).
T1 sequence (Q15391 whole entry): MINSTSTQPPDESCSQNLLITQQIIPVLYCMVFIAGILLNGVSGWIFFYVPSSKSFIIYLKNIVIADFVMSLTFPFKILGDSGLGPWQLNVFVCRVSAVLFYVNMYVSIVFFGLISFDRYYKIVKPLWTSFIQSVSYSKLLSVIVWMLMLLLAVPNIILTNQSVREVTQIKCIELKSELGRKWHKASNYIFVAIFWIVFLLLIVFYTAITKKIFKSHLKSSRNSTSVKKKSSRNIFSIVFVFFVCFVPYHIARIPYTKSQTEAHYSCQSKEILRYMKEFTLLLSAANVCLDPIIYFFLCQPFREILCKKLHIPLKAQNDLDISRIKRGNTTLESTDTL
The data set can be described thus: Antagonist activity at P2Y14 receptor (unknown origin) stably expressed in HEK293 cells assessed as inhibition of forskolin-induced intracellular cAMP production incubated for 30 mins in presence of UDPG by Camp-Glo kit assay. The class given is functional, cell-based.

The target in data set [5] is T1, P2Y purinoceptor 14. The data set can be described thus: Binding affinity to CM5 chip-immobilized P2Y14 receptor (unknown origin) assessed as equilibrium dissociation constant by SPR analysis. On the technique in general: In SPR one partner is held on a chip, and binding of the other changes the refractive index at the surface.
The test system of data set [6] is Mus musculus. The data set can be described thus: Anti-inflammatory activity in C57BL/6 mouse model of LPS-induced ALI assessed as reduction in MPO level in lung tissue at 2 to 6 mg/kg qd treated for 7 days. It is filed as functional, organism-based. The note with it: dose 2-6 mg/kg, time 7.0 day.
Data set [7] can be described thus: Stability in simulated gastric fluid assessed as half life. The class given is physicochemical.
Data set [8] concerns Mus musculus. The data set can be described thus: Anti-inflammatory activity in C57BL/6 mouse model of LPS-induced ALI assessed as reduction in IL-1beta level in BALF at 2 to 6 mg/kg qd treated for 7 days by ELISA. The class given is functional, organism-based. The conditions noted are these: dose 2-6 mg/kg, time 7.0 day.
The test system of data set [9] is Mus musculus. Description: Anti-inflammatory activity in C57BL/6 mouse model of LPS-induced ALI assessed as reduction in lung tissue damage at 2 to 6 mg/kg qd treated for 7 days by H and E staining based analysis. The class given is functional, organism-based. The note with it: dose 2-6 mg/kg, time 7.0 day.
Data set [10] is described as follows: Microsomal stability in human liver microsomes assessed as intrinsic clearance. The class given is ADME, Microsome. The conditions noted are these: read-out: CLH. A general note: Liver microsomes are a subcellular fraction often used to study metabolism.
The nature of data set [11]: Microsomal stability in human liver microsomes assessed as half life. It is filed as ADME, Microsome.
A short description of data set [12]: Toxicity in C57BL/6 mouse model of LPS-induced ALI assessed as average body weight change at 2 to 6 mg/kg qd treated for 7 days. The class given is organism-based. The note with it: in vivo, 168 h, dose 2-6 mg/kg, time 7 day.

Take `CNC(=O)C1CN(C(=O)c2onc3ccccc23)CC12CCN(C(=O)c1noc3ccccc13)CC2` (configuration not stated): the outcome with Mus musculus [1], in the data set on Mus musculus [3], in the data set with Mus musculus [6], with Mus musculus [8] and with Mus musculus [9] was Active. Besides, the half-life (in general, the time in which the quantity being followed falls by half) in data set [2] is above 5 h; in data set [7] it was above 50 h; in [11], 5.9 h. Also, the half-maximal inhibitory concentration (IC50) (commonly the concentration needed to halve the response being measured) at P2Y purinoceptor 14 [4] was determined as 0.0236 µM. The dissociation constant Kd (commonly a measure of binding affinity in units of concentration) on P2Y purinoceptor 14 [5] stood at 7.26 µM. The microsomal CLint in [10] came out at 25.6 µL/min/mg. For the same compound, the Activity entry in [12] is recorded as “Non-toxic”.
